Here are results for one compound from patent US8748395B2, “Cell-permeable peptide inhibitors of the JNK signal transduction pathway” (Xigen Inflammation Ltd., priority 2006, dated 2014).

The test system of experiment [1] is endogenous JNK activity in HepG2 cells. Nature of the experiment: Inhibition of endogenous JNK activity in HepG2 cells, AlphaScreen all-in one well approach. It is filed as cell-based. As for the experimental part:
HepG2 cells were seeded at 3'000 cells/well the day prior the experiment. Then, increasing concentrations of either interleukin-1β [IL-1β(ν)] or tumor necrosis factor α [TNFα(●)] (a) were added to activate JNK for 30 minutes. Cells were lysed in 20 mM Hepes, 0.5% Tween pH 7.4 and processed for AlphaScreen JNK. (b) Z′ for the JNK activity induced by 10 ng/ml IL-1β and measured in 384 wells/plate (n=96). (c) Inhibition of endogenous IL-1β-induced JNK activity with chemical JNK inhibitors [staurosporin (°) and SP600125 (●)]. (d) Effect of peptidic inhibitors L-TAT-IB1(s) according to SEQ ID NO: 9 [here abbreviated as L-JNKi (ν)) and D-TAT-IB1(s) according to SEQ ID NO: 11 (here abbreviated as D-JNKi (♦)) and JBDs (●) (corresponds to L-JNKI without the TAT sequence)] on IL-1α dependent JNK activity. All panels are representative of three independent experiments (n=3).
Methods: Alphascreen Kinase Assay
Principle: AlphaScreen is a non-radioactive bead-based technology used to study biomolecular interactions in a microplate format. The acronym ALPHA stands for Amplified Luminescence Proximity Homogenous Assay. […]
Kinase reagents (B-GST-cJun, anti P-cJun antibody and active JNK3) were first diluted in kinase buffer (20 mM Tris-HCl pH 7.6, 10 mM MgCl2, 1 mM DTT, 100 μM Na3VO4, 0.01% Tween-20) and added to wells (15 μl). […] AlphaScreen signal was analyzed directly on the Fusion or En Vision apparatus.
(In general: Bead proximity is the source of the signal in Alpha formats.)

The test system of experiment [2] is guinea pigs. Nature of the experiment: Treatment of noise trauma, hearing threshold shifts by auditory brainstem response. It is filed as in vivo. As for the experimental part: Changes of the hearing threshold level (dB sound pressure level) in guinea pigs following noise trauma (120 dB at 6 kHz during 30 minutes) at 8 kHz, the maximally impacted frequency, measured 20 minutes (temporary threshold shift, TTS, grey) and 15 days post noise exposure (permanent threshold shift). Guinea pigs received D-TAT-IB1(s) in a hyaluronic acid gel deposited onto the cochlear round window membrane either 30 minutes before, 30 minutes after or 4 hours after noise trauma; untreated ears served as control. TTS was measured 20 minutes post noise trauma, while PTS (black), which corresponds to permanent hearing loss, was determined after 15 days.
D-TAT-IB1(s) was applied onto the round window membrane of the cochlea of 3 groups of guinea pigs (each group with 6 animals) in 2 microliters of a gel formulation of 2.6% buffered hyaluronic acid (Hylumed, Genzyme Corp.) at a concentration of 100 μM either 30 minutes before noise trauma (120 dB at 6 kHz during 30 minutes) or 30 minutes or 4 hours thereafter. Untreated ears served as control. Hearing threshold shifts were evaluated by auditory brainstem response measurements 20 minutes after noise trauma (temporary threshold shift, TTS) and 15 days following the trauma (permanent threshold shift, PTS). […] Thus, D-TAT-IB1(s) is a very effective otoprotective compound in case of noise trauma.

The subject of experiment [3] is cortical neuronal culture. Kind of experiment: LDH release from cortical neuronal cultures following NMDA stimulation. It is filed as cell-based, rat. The following applies: 5 μM peptide, 30 min pre-treatment, 12 h of 100 μM NMDA. As for the experimental part: The neuroprotective effect of the D-TAT-IB (generic)(s)/D-JNKI1 peptide (SEQ ID NO: 12) was evaluated in sister cultures pre-treated for 30 min with the indicated concentrations of peptides or MK-801 before continuous exposure to 100 μM NMDA.
Cortical neuronal culture. We dissected small pieces of cortex from the brains of two day old rat pups, incubated them with 200 units of papain for 30 min at 34° C., and then plated the neurons at densities of approximately 1×10^6 cells/plate on dishes pre-coated with 100 μg/ml poly-D-lysine. The plating medium consisted of B27/Neurobasal (Life Technologies, Gaithersburg, Md.) supplemented with 0.5 mM glutamine, 100 U/ml penicillin and 100 ug/ml streptomycin.
Lactate dehydrogenate (LDH) cytotoxicity assay. LDH released into the bathing medium 12, 24 and 48 h after NMDA administration was measured using the Cytotox 96 non- radioactive cytotoxicity assay kit (PROMEGA®, WI) (see FIG. 5).
Background: LDH in the medium is a marker of cell lysis.

In experiment [4] the test system is WiDr cells. Kind of experiment: Irradiation (30 Gy) induced apoptosis of WiDr cells. It is filed as cell-based, human. The following applies: 1 μM added 30 minutes before 30 Gy, analyzed 48 hours later. As for the experimental part: JNK is also activated by ionizing radiation. To determine whether inventive TAT-IB(s) peptides would provide protection against radiation-induced JNK damage, “WiDr” cells were irradiated (30 Gy) in presence or absence of D-TAT, inventive L-TAT-IB1(s) or inventive D-TAT-IB1(s) peptides (1 μM added 30 minutes before irradiation). Control cells (CTRL) were not irradiated. Cells were analyzed 48 hours later by means of PI and Hoechst 3342 staining, as described above. N=3, SEM are indicated.

Entries after “also recorded” stand apart in the source; their conditions may differ. Square brackets hold non-standard residues; d marks the D form. Peptide text beside a SMILES is read from it.

With `CC(C)C[C@@H](NC(=O)[C@@H](Cc1ccccc1)NC(=O)[C@H]1CCCN1C(=O)[C@@H](CCC(N)=O)NC(=O)[C@H](NC(=O)[C@H]1CCCN1C(=O)[C@@H](CCCNC(=N)N)NC(=O)[C@@H](CO)NC(=O)[C@@H](CCC(N)=O)NC(=O)[C@H](N)CC(=O)O)C(C)C)C(=O)N[C@H](CC(N)=O)C(=O)N[C@H](CC(C)C)C(=O)N[C@@H](C(=O)N[C@@H](C(=O)N1CCC[C@@H]1C(=O)N[C@H](CCCNC(=N)N)C(=O)N[C@H](CCCCN)C(=O)N1CCC[C@@H]1C(=O)N[C@H](CCCNC(=N)N)C(=O)N1CCC[C@@H]1C(=O)N1CCC[C@@H]1C(=O)N[C@H](CCCNC(=N)N)C(=O)N[C@H](CCCNC(=N)N)C(=O)N[C@H](CCCNC(=N)N)C(=O)N[C@H](CCC(N)=O)C(=O)N[C@H](CCCNC(=N)N)C(=O)N[C@H](CCCNC(=N)N)C(=O)N[C@H](CCCCN)C(=O)N[C@H](CCCCN)C(=O)N[C@H](CCCNC(=N)N)C(=O)NCC(=O)O)[C@H](C)O)[C@H](C)O` [D-TAT-IB1(s)] (H-[dD][dQ][dS][dR][dP][dV][dQ][dP][dF][dL][dN][dL][dT][dT][dP][dR][dK][dP][dR][dP][dP][dR][dR][dR][dQ][dR][dR][dK][dK][dR]G-OH), the “inhibition of IL-1β-induced endogenous JNK activity” value in experiment [1] is given as “effectively inhibits JNK activity, even better than L-TAT-IB1(s)”. Besides, the “protection against permanent hearing loss (PTS, 15 days)” value in experiment [2] (100 μM in hyaluronic acid gel on round window membrane, 30 minutes before, 30 minutes or 4 hours after noise trauma) is “protects substantially against permanent hearing loss; also recorded: protected against permanent hearing loss even if applied after exposure to excessive noise”. Further, the “PTS in treated ears versus untreated control ears” value in experiment [2] (administration 30 minutes and 4 hours post trauma, 8 kHz) is recorded as “significantly lower”. The “degenerative changes due to NMDA exposure (LDH release above controls)” value in experiment [3] was “degenerative changes due to NMDA exposure were completely inhibited”. Further, in experiment [4], the “prevention of irradiation induced apoptosis” value is listed as “able to prevent irradiation induced apoptosis”.
